Source: ChEMBL document CHEMBL1127899, “Potent, acid-stable and orally active macrolide-type motilin receptor agonists, GM-611 and the derivatives” (Bioorg Med Chem Lett, 1994)
Values after ≈ are worked out from the molar mass of the structure shown.

Key:
[1] = system: Canis familiaris; experiment: Tested for in vivo smooth muscle contractile activity, expressed as MI100 (dose to give 100 of motor index after ig administration).; assay type: functional, Canis lupus familiaris, Muscle tissue
[2] = system: Canis familiaris; experiment: Tested for in vivo smooth muscle contractile activity, expressed as MI100 (dose to give 100 of motor index after iv administration); assay type: functional, Canis lupus familiaris, Muscle tissue
[3] = target: T1, Motilin receptor (Oryctolagus cuniculus, UniProt A5A4K8); experiment: Concentration required for in vitro acid stability with hydrochloric acid solution (pH 2.5 ) at room temperature for 2 hr by assaying the solution for motilin receptor binding
T1 sequence (A5A4K8 whole entry): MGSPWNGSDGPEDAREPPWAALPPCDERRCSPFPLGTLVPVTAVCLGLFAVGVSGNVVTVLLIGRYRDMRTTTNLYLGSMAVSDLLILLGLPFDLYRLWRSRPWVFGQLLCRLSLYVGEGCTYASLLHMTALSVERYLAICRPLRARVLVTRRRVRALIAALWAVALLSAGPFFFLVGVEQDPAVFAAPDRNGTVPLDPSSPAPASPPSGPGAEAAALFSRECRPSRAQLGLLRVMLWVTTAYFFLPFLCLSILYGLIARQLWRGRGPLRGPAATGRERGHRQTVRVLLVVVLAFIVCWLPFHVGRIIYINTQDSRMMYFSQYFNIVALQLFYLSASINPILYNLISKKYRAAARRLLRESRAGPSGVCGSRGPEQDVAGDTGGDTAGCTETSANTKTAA

[4] = species: Oryctolagus cuniculus; experiment: Concentration required for in vitro smooth muscle contractile activity of the compound, expressed as negative logarithm of EC50; assay type: functional; settings: Muscle tissue
[5] = target: T1, Motilin receptor; experiment: Concentration required for in vitro motilin receptor binding, expressed as negative logarithm of IC50
[6] = system: Bacillus subtilis; experiment: Antibacterial activity against Bacillus subtilis ATCC 6633, activity expressed as MIC; assay type: functional
[7] = system: Escherichia coli; experiment: Antibacterial activity against Escherichia coli NIHJ JC-2, activity expressed as MIC; assay type: functional
[8] = system: Klebsiella pneumoniae; experiment: Antibacterial activity against Klebsiella pneumoniae IFO 3512, activity expressed as MIC; assay type: functional
[9] = system: Staphylococcus aureus; experiment: Antibacterial activity against Staphylococcus aureus 209P, activity expressed as MIC; assay type: functional
[10] = system: Streptococcus pneumoniae; experiment: Antibacterial activity against Streptococcus pneumoniae No.12, activity expressed as MIC; assay type: functional

SMILES: CCC1OC(=O)C(C)C(O[C@H]2C[C@@](C)(OC)[C@@H](O)C(C)O2)C(C)[C@@H](OC2OC(C)CC(N(C)C(C)C)[C@H]2O)[C@]2(C)CC(C)=C(O2)[C@H](C)C(=O)[C@]1(C)OC (some centres undefined)
- MI100 [1]: 1.5 µg/kg
- MI100 [2]: 1 µg/kg
- IC50 [3]: 0.00794 µM
- EC50 [4]: 0.0389 µM
- IC50 [5]: 0.00603 µM

SMILES: CCC1OC(=O)C(C)C(O[C@H]2C[C@@](C)(OC)[C@@H](O)C(C)O2)C(C)[C@@H](OC2OC(C)CC(N(C)C)[C@H]2O)[C@@](C)(O)C[C@@H](C)C(=O)[C@H](C)[C@@H](O)[C@]1(C)O (some centres undefined)
- MIC [6]: 0.39 mg/L (≈ 0.531 µM)
- MI100 [2]: 32.3 µg/kg
- MIC [7]: 100 mg/L (≈ 136 µM)
- MIC [8]: 6.3 mg/L (≈ 8.58 µM)
- IC50 [3]: 0.0708 µM
- EC50 [4]: 0.316 µM
- MIC [9]: 0.39 mg/L (≈ 0.531 µM)
- MIC [10]: 0.1 mg/L (≈ 0.136 µM)
- IC50 [5]: 0.0437 µM

SMILES: CCC1OC(=O)C(C)C(O[C@H]2C[C@@](C)(OC)[C@@H](O)C(C)O2)C(C)[C@@H](OC2OC(C)CC(N(C)CC)[C@H]2O)[C@]2(C)CC(C)=C(O2)[C@H](C)[C@@H](O)[C@]1(C)O (some centres undefined)
- MIC [6]: 100 mg/L (≈ 137 µM)
- MI100 [1]: 14.9 µg/kg
- MI100 [2]: 0.9 µg/kg
- IC50 [3]: 0.302 µM
- EC50 [4]: 0.0479 µM
- MIC [10]: 25 mg/L (≈ 34.2 µM)
- IC50 [5]: 0.00316 µM

SMILES: CC[C@H]1OC(=O)[C@H](C)[C@@H](O[C@H]2C[C@@](C)(OC)[C@@H](O)[C@H](C)O2)[C@H](C)[C@@H](O[C@@H]2O[C@H](C)C[C@H](N(C)C)[C@H]2O)[C@@]2(C)CC(C)=C(O2)[C@H](C)[C@@H](O)[C@]1(C)O
- MI100 [2]: 1 µg/kg
- IC50 [3]: 0.224 µM
- EC50 [4]: 0.0417 µM
- IC50 [5]: 0.00339 µM

SMILES: CCC1OC(=O)C(C)C(O[C@H]2C[C@@](C)(OC)[C@@H](O)C(C)O2)C(C)[C@@H](OC2OC(C)CC(N(C)CC)[C@H]2O)[C@]2(C)CC(C)=C(O2)[C@H](C)C(=O)[C@]1(C)OC (some centres undefined)
- MI100 [1]: 4.3 µg/kg
- MI100 [2]: 1.1 µg/kg
- IC50 [3]: 0.00646 µM
- EC50 [4]: 0.0437 µM
- MIC [10]: 50 mg/L (≈ 67.4 µM)
- IC50 [5]: 0.0038 µM

SMILES: CCC1OC(=O)C(C)C(O[C@H]2C[C@@](C)(OC)[C@@H](O)C(C)O2)C(C)[C@@H](OC2OC(C)CC(N(C)C)[C@H]2O)[C@]2(C)CC(C)C3(O[C@]1(C)[C@H](O)[C@H]3C)O2 (some centres undefined)
- MI100 [2]: >70 µg/kg
- IC50 [3]: 0.17 µM
- EC50 [4]: > 10 µM
- IC50 [5]: 0.155 µM

SMILES: CCC1OC(=O)C(C)C(O[C@H]2C[C@@](C)(OC)[C@@H](O)C(C)O2)C(C)[C@@H](OC2OC(C)CC(N(C)C)[C@H]2O)[C@]2(C)CC(C)=C(O2)[C@H](C)C(=O)[C@]1(C)OC (some centres undefined)
- MIC [6]: 6.3 mg/L (≈ 8.65 µM)
- MI100 [1]: 2.4 µg/kg
- MI100 [2]: 2.9 µg/kg
- MIC [8]: 100 mg/L (≈ 137 µM)
- IC50 [3]: 0.00891 µM
- EC50 [4]: 0.117 µM
- MIC [9]: 13 mg/L (≈ 17.9 µM)
- MIC [10]: 3.1 mg/L (≈ 4.26 µM)
- IC50 [5]: 0.00912 µM
